Measurements reported in publication PMC12446627, “Novel Thioredoxin reductase 1 inhibitor BS1801 relieves treatment resistance and triggers endoplasmic reticulum stress by elevating reactive oxygen species in glioma” (Redox Biology, 2025).
Read-outs that look alike come from different tables or passages of the source.

Legend:
[1] = biological target: T1, Thioredoxin reductase 1 (TrxR1) (Homo sapiens, UniProt Q16881); experiment: biochemical
T1 construct: gene TXNRD1

[2] = biological target: T1, Thioredoxin reductase 1 (TrxR1)

T1 sequence (Q16881 whole entry): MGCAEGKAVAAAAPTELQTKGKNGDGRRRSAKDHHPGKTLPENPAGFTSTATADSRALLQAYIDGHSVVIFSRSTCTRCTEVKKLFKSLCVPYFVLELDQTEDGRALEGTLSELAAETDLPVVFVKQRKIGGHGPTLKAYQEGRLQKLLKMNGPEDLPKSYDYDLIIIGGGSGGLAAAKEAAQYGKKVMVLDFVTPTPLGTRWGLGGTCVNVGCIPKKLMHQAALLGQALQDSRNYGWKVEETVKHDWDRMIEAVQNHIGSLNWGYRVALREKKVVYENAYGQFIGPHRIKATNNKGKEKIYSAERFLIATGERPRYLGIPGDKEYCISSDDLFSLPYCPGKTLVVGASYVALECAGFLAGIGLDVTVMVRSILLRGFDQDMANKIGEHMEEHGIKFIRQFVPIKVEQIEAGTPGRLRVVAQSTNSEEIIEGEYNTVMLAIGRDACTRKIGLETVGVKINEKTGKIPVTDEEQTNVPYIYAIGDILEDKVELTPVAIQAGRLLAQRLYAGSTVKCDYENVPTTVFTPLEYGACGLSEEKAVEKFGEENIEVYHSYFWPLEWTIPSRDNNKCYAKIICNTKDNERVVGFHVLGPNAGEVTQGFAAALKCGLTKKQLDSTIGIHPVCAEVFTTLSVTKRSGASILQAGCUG

SMILES | Kd [1] | Kd [2]
O=c1c2ccccc2[se]n1CCCCn1[se]c2ccccc2c1=O [BS1801, 2,2'-(butane-1,4-diyl)bis(benzo[d] [1,2]selenazol-3(2H)-one)] | 2.44 µM | –
CC[P](CC)(CC)=[Au][S][C@@H]1O[C@H](COC(C)=O)[C@@H](OC(C)=O)[C@H](OC(C)=O)[C@H]1OC(C)=O [auranofin] | – | 5.07 µM
